Laboratory results published in patent publication US20080254462A1, “ALTERED ZDHHC8 EXPRESSION AS A MARKER OF INCREASED RISK OF SCHIZOPHRENIA” (priority 2005, published 2008).

Assays:
[1] = tested on: homozygous Zdhhc8 mutant mice and wild-type littermate controls; experiment: Locomotor activating effects of MK801 in the open field; format: in vivo
Protocol: Open field assay. Animals were not pre-exposed to the chamber before testing. Activity was monitored in a clear acrylic chamber directly illuminated and equipped with infrared sensors for the automatic recording of horizontal and vertical activity (Colbourn Instruments). Each animal was placed initially in the periphery of the chamber, and recordings of the total distance traveled, the number of rearings (vertical moves) and the number of entries in the centerfield over the next 15 min were used as a measure of a locomotor response to novelty. 47 female mice (17 homozygous Zdhhc8 mutant, 17 heterozygous Zdhhc8 mutant and 13 wild-type littermate controls) and 45 male mice (13 homozygous Zdhhc8 mutant, 19 heterozygous Zdhhc8 mutant and 13 wild-type littermate controls) were tested.
Drug administration. MK801 was purchased from Sigma. Each experimental group consisted of 8-10 mice, which received the same number of injections, administered intraperitoneally, of either drug (0.4 mg per kg body weight) or vehicle. After 30 minutes of prehabituation in the open field, the mice were removed, injected and then left to rest for 10 minutes in their home cage before returning them to the open field arena, where they were monitored for an additional 30 minutes. […]

[2] = tested on: PSD95 (Post-Synaptic Density-95)

Row | Compound | Sensitivity to MK801-induced stimulation of locomotor activity (ratio of activity after injection to activity before injection) ([1]; homozygous Zdhhc8 mutant female mice vs wild-type littermate controls, 0.4 mg per kg intraperitoneally, P=0.05, not in males) | Locomotor stimulation after MK801 injection ([1]; open field, 0.4 mg per kg body weight intraperitoneally, 30 minutes before and 30 minutes after injection, both genotypes, females and males) | metabolic labeling assay (palmitoylation of PSD95) [2]
1 | C[C@]12N[C@H](Cc3ccccc31)c1ccccc12 [MK801, dizocilpine] | somewhat less sensitive to MK801-induced stimulation of locomotor activity than wild-type littermate controls | Locomotor stimulation after MK801 injection was observed in both genotypes in both females (E) and males (F) | –
2 | ZDHHC8 mutant "230" (lacks the entire C-terminal domain) | – | – | this form shows no essentially no activity when compared with vector-only control
